Publication PMC4339681, “2- and 3-substituted imidazo[1,2-a]pyrazines as inhibitors of bacterial type IV secretion” (Bioorganic & Medicinal Chemistry, 2014)
Read-outs that look alike come from different tables or passages of the source.

Key:
VirB11 ATPase HP0525 [1] = biological target: T1, VirB11 ATPase HP0525 (Helicobacter pylori, UniProt Q7BK04); assay: colorimetric in vitro ATPase assay (release of inorganic phosphate), IC50 estimation; format: biochemical; settings: for inhibitory activity in words: ATPase assay
T1 sequence (Q7BK04 entry or part of it): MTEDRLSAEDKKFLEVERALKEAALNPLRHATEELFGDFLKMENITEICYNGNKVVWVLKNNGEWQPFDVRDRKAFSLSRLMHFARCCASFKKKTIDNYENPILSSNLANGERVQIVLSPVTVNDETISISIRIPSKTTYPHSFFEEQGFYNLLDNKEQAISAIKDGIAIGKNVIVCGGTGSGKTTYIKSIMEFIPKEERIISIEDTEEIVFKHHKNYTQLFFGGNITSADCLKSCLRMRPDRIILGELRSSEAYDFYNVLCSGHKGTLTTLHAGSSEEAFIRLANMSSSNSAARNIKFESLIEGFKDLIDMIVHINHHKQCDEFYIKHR
Procedure: The HP0525 protein was produced recombinantly in Escherichia coli and purified to high purity as described previously.[10] The ATPase activity of HP0525 was measured by monitoring the release of inorganic phosphate (Pi) using an in vitro ATPase assay (see Section 4 and SI). Initially, the inhibitory effects of the compounds were evaluated by performing the ATPase assay with and without compound present at concentrations of 500 μM (or 250 μM), 50 μM and 5 μM (data not shown). The compounds with inhibitory activities were further analyzed for dose-dependency by estimating their IC50s (Fig. 2).
(§1) Assays for the activity of the HP0525 inhibitors were performed using a colorimetric ATPase assay (Innova Biosciences), see SI for details. The enzymatic reactions were performed in 96-well format for 30 min at 37 °C followed by measuring the absorbance at 620 nm, detecting the presence of inorganic phosphate product. […] Michaelis–Menten kinetics were performed under the same conditions as above but with various concentrations of ATP ranging from 0 to 500 μM, with and without 10 μM of compound 11. Both IC50 and Michaelis–Menten kinetics measurements were made in triplicate.
ATPase activity measurements were carried out using a colorimetric in vitro ATPase assay kit (Innova Biosciences), using 96-well ELISA microplates (Greiner Bio-One) with reaction volumes of 100 µL in each well. Multi-pipettes with either 8 tips or 96 tips were used. Enzymatic reactions were performed for 30 min at 37 °C followed by measuring the absorbance at 620 nm, detecting the presence of inorganic phosphate product. Each reaction contained 100 mM Tris–HCl, pH 7.5; 2.5 mM MgCl2; 125 μM ATP; 5% DMSO; 25 mM NaCl; 0.5 mM DTT and 0.053 μM HP0525, with or without inhibitor. In detail, the assay can be described in steps. Step 1: 48 μL of substrate buffer mix (providing the components Tris–HCl, pH 7.5; MgCl2; ATP and DMSO) was dispensed to each well. Step 2: 2 μL of compound (solublized in DMSO) was added to corresponding well. Step 3: Enzymatic reaction was started by the addition of 50 μL of protein (in 50 mM Tris-HCl, pH 7.5; 50 mM NaCl and 1 mM DTT) to the wells. Step 4: Reaction plates were incubated at 37 degrees for 30 min. Step 5: The reaction was stopped by the addition of 25 uL of Gold mix reagent, followed by vigorous mixing. After 2-5 min, 10 uL of stabilizer solution was added to the reaction. Step 6: After an additional 30 min incubation at room temperature, the absorbance at 620 nm was measured using a microplate reader.
In the negative control, the protein was added after the Gold mix, as described in the standard protocol of the Innova Biociences ATPase assay kit. As an alternative negative control, providing equivalent readouts, 10 mM EDTA could also be added at Step 2, then removing the catalytically essential Mg ions from the active site of HP0525.
(§2) Michaelis-Menten kinetics were performed under the same conditions as above but with various concentrations of ATP ranging from 0 to 500 μM, with and without 10 μM of compound 11. Negative controls for each ATP concentration were used. GraphPad Prism version 5.0d for Mac OS X (GraphPad Software, San Diego California USA, www.graphpad.com) was used for the IC50 calculations using the Prism equation for non-linear normalized dose-response ‘Log(Inhibitor) vs. normalized response’ with Hill slope set to 1; and for Michaelis-Menten and Lineweaver-Burk analysis.

VirB11 ATPase HP0525 [2] = biological target: T1, VirB11 ATPase HP0525; assay: steady-state (Michaelis–Menten / Lineweaver–Burk) kinetics, mode of inhibition; format: biochemical; settings: ATP 0 to 500 μM, with and without 10 μM of compound
Procedure: as §1, §2

[3] = 125 μM ATP, 0.053 μM HP0525, 5% DMSO, pH 7.5, 30 min at 37 °C, triplicate, read-out: IC50

“4-methyl-N-[2-(2-naphthyl)imidazo[1,2-a]pyrazine-8-yl]benzenesulfonamide [Compound 1]” showed an IC50 (VirB11 ATPase HP0525 [1]; [3]) of 77 ± 16 µM.

Cc1ccc(S(=O)(=O)Nc2nccn3c(-c4ccccc4Oc4ccccc4)cnc23)cc1 [Compound 2] was tested, and the IC50 (VirB11 ATPase HP0525 [1]) was 96 ± 42 µM.

COc1ccc(-c2cnc3c(NS(=O)(=O)c4ccc(C)cc4)nccn23)cc1OC [Compound 3, N-[3-(3,4-dimethoxyphenyl)imidazo[1,2-a]pyrazine-8-yl]-4-methyl-benzenesulfonamide] showed an IC50 (VirB11 ATPase HP0525 [1]) of 144 ± 14 µM.

Cc1ccc(S(=O)(=O)Nc2nccn3c(-c4cc(C)cc(C)c4)cnc23)cc1 [Compound 4] gave an IC50 (VirB11 ATPase HP0525 [1]) of 154 ± 22 µM.

Cc1ccc(S(=O)(=O)Nc2ccc(Nc3nccn4c(-c5ccc6ccccc6c5)cnc34)cc2)cc1 [Compound 5, 4-methyl-N-[4-[3-(2-naphthyl)imidazo[1,2-a]pyrazine-8-yl]aminophenyl]benzenesulfonamide] was tested, and the IC50 (VirB11 ATPase HP0525 [1]) was 20 ± 3 µM.

Cc1ccc(S(=O)(=O)Nc2ccc(Nc3nccn4c(-c5ccsc5)cnc34)cc2)cc1 [Compound 6, 4-methyl-N-[4-[[3-(3-thienyl)imidazo[1,2-a]pyrazine-8-yl]amino]phenyl]benzenesulfonamide] gave an IC50 (VirB11 ATPase HP0525 [1]) of 48 ± 7 µM.

Cc1ccc(S(=O)(=O)Nc2nccn3cc(-c4ccc5ccccc5c4)nc23)cc1 [Compound 7, 4-methyl-N-[2-(2-naphthyl)imidazo[1,2-a]pyrazine-8-yl]benzenesulfonamide] gave an IC50 (VirB11 ATPase HP0525 [1]) of 88 ± 14 µM.

Cc1ccc(S(=O)(=O)Nc2nccn3cc(-c4ccccc4Oc4ccccc4)nc23)cc1 [Compound 8, 4-methyl-N-[2-(2-phenoxyphenyl)imidazo[1,2-a]pyrazine-8-yl]benzenesulfonamide] was tested, and the IC50 (VirB11 ATPase HP0525 [1]) was 82 ± 14 µM.

COc1ccc(-c2cn3ccnc(NS(=O)(=O)c4ccc(C)cc4)c3n2)cc1OC [Compound 9, N-[2-(3,4-dimethoxylphenyl)imidazo[1,2-a]pyrazine-8-yl]-4-methyl-benzenesulfonamide] was tested, and the IC50 (VirB11 ATPase HP0525 [1]) was 167 ± 43 µM.

Cc1ccc(S(=O)(=O)Nc2nccn3cc(-c4cc(C)cc(C)c4)nc23)cc1 [Compound 10, N-[2-(3,5-dimethylphenyl)imidazo[1,2-a]pyrazine-8-yl]-4-methylbenzenesulfonamide] showed an IC50 (VirB11 ATPase HP0525 [1]) of 133 ± 16 µM.

In the case of Cc1ccc(S(=O)(=O)Nc2ccc(Nc3nccn4cc(-c5ccc6ccccc6c5)nc34)cc2)cc1 [Compound 11, 4-methyl-N-[4-[[2-(2-naphthyl)imidazo[1,2-a]pyrazine-8-yl]amino]phenyl]benzenesulfonamide], the IC50 (VirB11 ATPase HP0525 [1]) is reported as 6 ± 1 µM and the mode of inhibition (VirB11 ATPase HP0525 [2]) is reported as “competitive inhibitor”.

Cc1ccc(S(=O)(=O)Nc2ccc(Nc3nccn4cc(-c5ccsc5)nc34)cc2)cc1 [Compound 12, 4-methyl-N-[4-[[2-(3-thienyl)imidazo[1,2-a]pyrazine-8-yl]amino]phenyl]benzenesulfonamide] was tested, and the IC50 (VirB11 ATPase HP0525 [1]) was 99 ± 18 µM.

For Cc1ccc(S(=O)(=O)Nc2ccc(Nc3nccn4cc(-c5ccccc5Oc5ccccc5)nc34)cc2)cc1 [Compound 13, 4-Methyl-N-(4-(2-(2-phenoxyphenyl)imidazo[1,2-a]pyrazin-8-ylamino)phenyl)benzenesulfonamide], the IC50 (VirB11 ATPase HP0525 [1]) was 18 ± 4 µM.

With Nc1nccn2cc(-c3ccc4ccccc4c3)nc12 [Compound 25, 2-(Naphthalen-2-yl)imidazo[1,2-a]pyrazin-8-amine] the IC50 (VirB11 ATPase HP0525 [1]) was over 1000 µM and the “inhibitory activity in words” value (VirB11 ATPase HP0525 [1]) was “complete loss of activity”.

Compound Nc1ccc(Nc2nccn3cc(-c4ccc5ccccc5c4)nc23)cc1 [Compound 26, N^’-(2-(Naphthalen-2-yl)imidazo[1,2-a]pyrazin-8-yl)benzene-1,4-diamine] has an IC50 (VirB11 ATPase HP0525 [1]) of 18 ± 5 µM.

CS(=O)(=O)Nc1ccc(Nc2nccn3cc(-c4ccc5ccccc5c4)nc23)cc1 [Compound 27, N-(4-(2-(Naphthalen-2-yl)imidazo[1,2-a]pyrazin-8-ylamino)phenyl)methanesulfonamide] was tested, and the IC50 (VirB11 ATPase HP0525 [1]) was 61 ± 28 µM.

In the case of Cc1ccc(S(=O)(=O)Nc2ccc(Oc3nccn4cc(-c5ccc6ccccc6c5)nc34)cc2)cc1 [Compound 28, 4-Methyl-N-(4-(2-(naphthalen-2-yl)imidazo[1,2-a]pyrazin-8-yloxy)phenyl)benzenesulfonamide], the IC50 (VirB11 ATPase HP0525 [1]) is reported as 29 ± 9 µM.

Work on Cc1ccc(S(=O)(=O)Nc2ccc(CNc3nccn4cc(-c5ccc6ccccc6c5)nc34)cc2)cc1 [Compound 29, 4-Methyl-N-(4-((2-(naphthalen-2-yl)imidazo[1,2-a]pyrazin-8-ylamino)methyl)phenyl)benzenesulfonamide] yielded an IC50 (VirB11 ATPase HP0525 [1]) of 75 ± 35 µM.

For Cc1ccc(S(=O)(=O)NCCCNc2nccn3cc(-c4ccc5ccccc5c4)nc23)cc1 [Compound 30, 4-Methyl-N-(3-(2-(naphthalen-2-yl)imidazo[1,2-a]pyrazin-8-ylamino)propyl)benzenesulfonamide], the IC50 (VirB11 ATPase HP0525 [1]) was 58 ± 38 µM.

Work on Cc1ccc(S(=O)(=O)NCCNc2nccn3cc(-c4ccc5ccccc5c4)nc23)cc1 [Compound 31, 4-Methyl-N-(2-(2-(naphthalen-2-yl)imidazo[1,2-a]pyrazin-8-ylamino)ethyl)benzenesulfonamide] yielded an IC50 (VirB11 ATPase HP0525 [1]) of 7 ± 2 µM.

For c1cncc(-c2cccc(Nc3nccn4cc(-c5ccc6ccccc6c5)nc34)c2)c1 [Compound 32, 2-(Naphthalen-2-yl)-N-(3-(pyridin-3-yl)phenyl)imidazo[1,2-a]pyrazin-8-amine], the IC50 (VirB11 ATPase HP0525 [1]) was 4 ± 1 µM.

O=S(=O)(Nc1ccc(Nc2nccn3cc(-c4ccc5ccccc5c4)nc23)cc1)c1cccc2cccnc12 [Compound 33, N-(4-((2-(Naphthalen-2-yl)imidazo[1,2-a]pyrazin-8-yl)amino)phenyl)quinoline-8-sulfonamide] showed an IC50 (VirB11 ATPase HP0525 [1]) of 7 ± 2 µM.

O=S(=O)(Nc1cccc(Nc2nccn3cc(-c4ccc5ccccc5c4)nc23)c1)c1cccc2cccnc12 [Compound 34, N-(3-((2-(Naphthalen-2-yl)imidazo[1,2-a]pyrazin-8-yl)amino)phenyl)quinoline-8-sulfonamide] gave an IC50 (VirB11 ATPase HP0525 [1]) of 7 ± 2 µM.

With Cc1ccc(S(=O)(=O)Nc2ccc(Nc3nccn4ccnc34)cc2)cc1 [Compound 35, N-(4-(Imidazo[1,2-a]pyrazin-8-ylamino)phenyl)-4-methylbenzenesulfonamide] the IC50 (VirB11 ATPase HP0525 [1]) was over 1000 µM and the “inhibitory activity in words” value (VirB11 ATPase HP0525 [1]) was “complete loss of activity”.

With Cc1ccc(S(=O)(=O)Nc2ccc(Nc3nccn4cc(-c5cnc6ccccc6n5)nc34)cc2)cc1 [Compound 36, 4-Methyl-N-(4-(2-(quinoxalin-2-yl)imidazo[1,2-a]pyrazin-8-ylamino)phenyl)benzenesulfonamide] the IC50 (VirB11 ATPase HP0525 [1]) was 28 ± 6 µM.

“N-(2-((6-Bromo-2-(naphthalen-2-yl)imidazo[1,2-a]pyrazin-8-yl)amino)ethyl)-4- methylbenzenesulfonamide [Compound 38]” was tested, and the IC50 (VirB11 ATPase HP0525 [1]; [3]) was 77 ± 20 µM.

For “N-(4-((6-Bromo-2-(naphthalen-2-yl)imidazo[1,2-a]pyrazin-8-yl)amino)phenyl)-4- methylbenzenesulfonamide [Compound 37]”, the IC50 (VirB11 ATPase HP0525 [1]; [3]) was 6 ± 2 µM.
